Where two headings read alike, the source gives them in different places.
Columns and labels:
Type in all cases: cell-based, human
MCF-7 cells = test: Sulforhodamine B assay, proliferation of MCF-7 cells; conditions: for IC50: MCF-7 breast cancer cells, one cell cycle (48 h), SRB
Protocol: (§1) The present invention further provides a Sulforhodamine B assay method for investigating the anti-cancer efficacies of the compounds of the present Pd—NHC series on MCF-7, HeLa, A549, B16-F10 and EMT6/AR1 cancer cell lines and also for a comparative study on normal skin cell line L929 and normal epithelial breast cells MCF10A. The said Sulforhodamine B assay is conducted as per reported method (Skehan et al., J. Natl. Cancer Inst. 1990, 82, 1107).
(§2) Experiment: The anti-proliferative activity of the present palladium N-heterocyclic carbene complexes on two different cancer cell lines MCF-7 and HeLa is tested using Sulforhodamine B assay to reveal their anti-tumor properties. The evaluation of growth inhibition of these complexes is done from their IC50 values for the inhibition of cell growth. The IC50 values are compared with Cisplatin to determine any increase in efficacy.
Method: The effects of present series of palladium N-heterocyclic carbene complexes, such as compounds (1S,2S,5R)-(1-3)b and (1R,2R,5S)-(1-3)b; (1S,2S,5R)-(1, 3)c and (1R,2R,5S)-(1, 3)c on the proliferation of MCF-7 cells after one cell cycle are determined by Sulforhodamine B assay. In particular, 1×10^5 cells/mL are seeded in each well in 96-well plates for 24 h and then incubated without or with different concentrations of these complexes at 37° C. for one cell cycle (48 h). After incubation of cells with the complexes for one cell cycle, cell growth is stopped by the addition of 50% trichloroacetic acid and stained with 0.4% sulforhodamine B dissolved in 1% acetic acid. Unbound dye is removed by washing with 1% acetic acid, and the protein content is determined by measuring absorbance at 520 nm in a Bio-Rad model 680 microplate reader after extracting with 10 mM tris base. IC50 value is calculated as the concentration of the complex that inhibited the proliferation of cells by 50% relative to the untreated control cells. The anticancer activities of the present Pd—NHC compounds are graphically represented in accompanying FIG. 1.
(§3) The data obtained is graphically represented in accompanying FIG. 2.

HeLa cells = test: Sulforhodamine B assay, proliferation of HeLa cells; conditions: for IC50: HeLa cervical cancer cells, 24 h, SRB
Protocol: as §1, §2
The seeded cells in 96-well plates are incubated with the complex for 24 h and the assay is performed.
as §3

p53 in MCF-7 cells = test: Immunostaining for nuclear accumulation of p53; conditions: MCF-7, 4 and 8 μM, 36 h
Protocol: Experiment: MCF-7 (5×10^4 cells/well) cells were seeded on glass cover slip in a 24-well cell culture plate. After the cells were attached, they were incubated with 4 and 8 μM (1R,2R,5S)-1c for 36 h, fixed with 3.7% formaldehyde and processed for immunostaining. After fixing, cells were blocked with 2% BSA and incubated with anti-p53 IgG (1:300) and anti-p21 IgG (1:300) for 2 h at 37° C. Primary antibody incubation was followed by Alexa Fluor 568-conjugated sheep anti-mouse secondary IgG (1:400) incubation for 1 h at 37° C. Hoechst 33258 was used to stain the DNA. Immunofluorescence images were captured using Eclipse TE 2000U microscope (Nikon, Tokyo, Japan) at 40× magnification and processed by Image-Pro Plus software (Media Cybernetics, Silver Spring, Md.). To determine the percentage of cells with nuclear accumulation of p53 and p21, 1000 cells were scored in each case. The experiment was repeated thrice.

Substance: trans-[1-(1R)-menthyl-4-(ethyl)-1,2,4-triazol-5-ylidene]2Pd(OCOCF3)2 [(1R,2R,5S)-1c]
- IC50 of Cisplatin against MCF-7 as multiple of IC50 of the complex (MCF-7 cells; MCF-7): 27 times
- IC50 (MCF-7 cells; read-out: IC50 (μM), MCF-7): 0.55 ± 0.02 µM
- IC50 (MCF-7 cells; unit nM printed in cell or sentence, read-out: IC50, MCF-7 (values given in nM)): 0.55 ± 0.02 µM
- IC50 of Cisplatin against HeLa as multiple of IC50 of the complex (HeLa cells; HeLa): around 4 times
- IC50 (HeLa cells; listed as drawing 41): 2.3 ± 1 µM
- IC50 (HeLa cells; listed as drawing 48): 2.3 ± 1 µM
- Nuclear accumulation of p53 (in words) (p53 in MCF-7 cells): leads to the nuclear accumulation of p53
